Source: patent US20200163984A1, “USE OF ISOVALERYL SPIRAMYCIN I, II AND/OR III IN MANUFACTURING MEDICAMENT FOR TREATING AND/OR PREVENTING TUMOR, AND MEDICAMENT” (SHENYANG FUYANG PHARMACEUTICAL TECHNOLOGY CO., LTD., priority 2017, published 2020)

Experiments:
[1] = system: transplanted tumor of human gastric adenocarcinoma cell SGC7901; assay: SGC7901 transplanted tumor in nude mice
Experimental: (§1) Then cell concentration was adjusted to 1×10^7/ml with matrigel, then each nude mouse was inoculated subcutaneously with 0.2 ml of cells at its right armpit and recorded as the first day of inoculation. When the tumor grows to be greater than or equal to 100 mm^3, the mice were randomly divided into 11 groups with 6 mice in each group: a model group, a cyclophosphamide group, isovaleryl spiramycin I groups with doses of 25, 50 and 100 mg/kg, isovaleryl spiramycin II groups with doses of 25, 50 and 100 mg/kg, and isovaleryl spiramycin III groups with doses of 25, 50 and 100 mg/kg. Each group was continuously administered intragastrically for 30 days with a dose of 20 ml/kg. The mice were sacrificed the next day after drug withdrawal and the indicators were tested. The long diameter and short diameter of the tumor, and the body weight of each mouse were recorded every 3 days from drug administration to nude mouse sacrifice.
(§2) The body weight of the nude mice and the long diameter (a) and short diameter (b) of the transplanted tumor were measured every 3 days, and the tumor volume (v), relative tumor volume (RTV) and relative tumor proliferation rate (T/C) are calculated respectively according to the following formulas, wherein V=a×b^2/2; RTV=V/V0 (V0 is the tumor volume before administration, V is the tumor volume before sacrifice), and T/C (%)=treatment group RTV/model control group RTV×100%.
(§3) Each mouse was weighed and sacrificed. After the tumor was completely stripped off from the body of the mouse, the non-tumor tissues such as blood stains and fat were removed to weigh the tumor and calculate the tumor growth inhibition rate. The average tumor weight of each group of mice is used as an indicator of efficacy. Tumor growth inhibition rate (%)=(1−the average tumor weight of the treatment group/the average tumor weight of the model group)×100%.

[2] = system: transplanted tumor of human renal clear cell adenocarcinoma cell 786-O; assay: 786-O transplanted tumor in nude mice; conditions: for Tumor Volume (mm3) (d 1): d1
Experimental: as §1, with “786-O cells in a logarithmic growth phase were taken and subjected to a trypan blue exclusion experiment showing that the cell viability was more than 95%, then the cells were subjected to trypsinization, centrifugation, and supernatant removal. Then” for “Then”
as §2, §3

[3] = system: transplanted tumor of mouse H22 liver cancer; assay: Transplanted tumor of mouse H22 liver cancer; conditions: for Tumor Volume (mm3) (d30): d 30; for Body Weight (g) (d1) / Body Weight (g) (d 7): mouse, in vivo
Experimental: The H22 cell strains cryopreserved in liquid nitrogen were resuscitated in Kunming mice. After 3 generations, the ascites of Kunming mice were taken and placed in a 50 ml centrifuge tube in which 10 ml of 0.9% normal saline was added, and then centrifuging was performed at 1000 rpm for 5 min at room temperature, and the obtained supernatant was removed. Then 10 ml of 0.9% normal saline was added to the tube to blow and mix well, and then the mixture was diluted to 5×10^6 live cells/ml with normal saline after counting. The tube was stored in ice water, and 75% ethanol was used to disinfect the skin under the right armpits of the mice. Each Kunming mouse was soon inoculated subcutaneously with 0.2 ml of the cells at the armpit of the right forelimb.
In the H22 liver cancer model, the mice inoculated with the tumor were randomly divided into groups with 10 mice in each group on the next day of inoculation. The groups included: a model control group, a positive drug cyclophosphamide control group (CTX, 26 mg/kg), isovaleryl spiramycin I groups with doses of 13, 26 and 52 mg/kg; isovaleryl spiramycin II groups with doses of 13, 26 and 52 mg/kg; isovaleryl spiramycin III groups with doses of 13, 26 and 52 mg/kg. Each group was continuously administered intragastrically for 7 days with a dose of 20 ml/kg.
The tumor-bearing mice were weighed and sacrificed the next day after the last administration. The subcutaneous tumors were dissected and weighed. The average tumor weight of each group is calculated, and the tumor inhibition rate is calculated.
Tumor inhibition rate=(1−T/C)×100%
T: average tumor weight of the drug-administered group; C: average tumor weight of the blank control group.

[4] = SGC7901, 12.5 mg/kg (low dose) i.g. 30 days
[5] = SGC7901, 25 mg/kg (medium dose) i.g. 30 days
[6] = SGC7901, 50 mg/kg (high dose) i.g. 30 days
[7] = 786-O, high dose (100 mg/kg in method) i.g. 30 days
[8] = 786-O, low dose (25 mg/kg in method) i.g. 30 days
[9] = 786-O, medium dose (50 mg/kg in method) i.g. 30 days

CO[C@@H]1[C@@H](O[C@@H]2O[C@H](C)[C@@H](O[C@H]3C[C@@](C)(O)[C@@H](OC(=O)CC(C)C)[C@H](C)O3)[C@H](N(C)C)[C@H]2O)[C@@H](CC=O)C[C@@H](C)[C@@H](O[C@H]2CC[C@H](N(C)C)[C@@H](C)O2)/C=C/C=C/C[C@@H](C)OC(=O)C[C@H]1O [Isovaleryl spiramycin I, isovaleryl spiramycin I]
Inhibition Rate (tumor growth inhibition rate) [1, 4]: 31.56% | Relative Tumor Proliferation Rate (T/C) [1, 4]: 61.13% | Relative Tumor Volume (RTV) [1, 4]: 5.37 ± 3.46 | Tumor Volume (d 1) [1, 4]: 412.96 ± 157.62 mm3 | Tumor Volume (d 30) [1, 4]: 2815.50 ± 770.23 mm3 | Tumor Weight [1, 4]: 1.07 ± 0.53 g | Inhibition Rate (tumor growth inhibition rate) [1, 5]: 53.13% | Relative Tumor Proliferation Rate (T/C) [1, 5]: 42.67% | Relative Tumor Volume (RTV) [1, 5]: 3.98 ± 2.78 | Tumor Volume (d 1) [1, 5]: 258.63 ± 104.26 mm3 | Tumor Volume (d 30) [1, 5]: 1230.76 ± 635.23 mm3 | Tumor Weight [1, 5]: 0.74 ± 0.52 g | Inhibition Rate (tumor growth inhibition rate) [1, 6]: 70.78% | Relative Tumor Proliferation Rate (T/C) [1, 6]: 20.23% | Relative Tumor Volume (RTV) [1, 6]: 3.64 ± 1.65 | Tumor Volume (d 1) [1, 6]: 279.56 ± 156.70 mm3 | Tumor Volume (d 30) [1, 6]: 630.69 ± 458.86 mm3 | Tumor Weight [1, 6]: 0.46 ± 0.36 g | tumor volume and relative tumor volume compared with the model group ([1]; SGC7901, low, medium and high doses, P<0.05): significantly lower | mouse weight compared with the model group ([1]; mouse, in vivo): no significant changes | Inhibition Rate (%) ([2]; 786-O nude mice, 25 mg/kg): 34.70% | Relative Tumor Proliferation Rate (T/C) ([2]; 786-O nude mice, 25 mg/kg): 37.88% | Relative Tumor Volume (RTV) ([2]; 786-O nude mice, 25 mg/kg): 6.99 ± 0.83 | Tumor Weight ([2]; 786-O nude mice, 25 mg/kg): 1.40 ± 0.40 g | Tumor Volume (mm3) (d 1) ([2]; 786-O nude mice, 25 mg/kg): 96.85 ± 9.98 mm3 | Tumor Volume (mm3) (d30) ([2]; 786-O nude mice, 25 mg/kg): 677.21 ± 58.76 mm3 | Inhibition Rate (%) ([2]; 786-O nude mice, 50 mg/kg): 39.22% | Relative Tumor Proliferation Rate (T/C) ([2]; 786-O nude mice, 50 mg/kg): 37.19% | Relative Tumor Volume (RTV) ([2]; 786-O nude mice, 50 mg/kg): 6.86 ± 1.01 | Tumor Weight ([2]; 786-O nude mice, 50 mg/kg): 1.31 ± 0.35 g | Tumor Volume (mm3) (d 1) ([2]; 786-O nude mice, 50 mg/kg): 96.82 ± 8.52 mm3 | Tumor Volume (mm3) (d30) ([2]; 786-O nude mice, 50 mg/kg): 664.44 ± 73.49 mm3 | Inhibition Rate (%) ([2]; 786-O nude mice, 100 mg/kg): 64.36% | Relative Tumor Proliferation Rate (T/C) ([2]; 786-O nude mice, 100 mg/kg): 36.87% | Relative Tumor Volume (RTV) ([2]; 786-O nude mice, 100 mg/kg): 6.81 ± 0.31 | Tumor Weight ([2]; 786-O nude mice, 100 mg/kg): 0.76 ± 0.13 g | Tumor Volume (mm3) (d 1) ([2]; 786-O nude mice, 100 mg/kg): 103.25 ± 9.71 mm3 | Tumor Volume (mm3) (d30) ([2]; 786-O nude mice, 100 mg/kg): 702.74 ± 37.66 mm3 | Relative Tumor Proliferation Rate (T/C) [2, 7]: 36.89% | tumor growth inhibition rate [2, 7]: 64.36% | Relative Tumor Proliferation Rate (T/C) [2, 8]: 37.88% | tumor growth inhibition rate [2, 8]: 34.70% | tumor volume and relative tumor volume compared with the model group ([2]; 786-O, low, medium and high doses, P<0.05): significantly lower | Relative Tumor Proliferation Rate (T/C) [2, 9]: 37.19% | tumor growth inhibition rate [2, 9]: 39.22% | mouse weight compared with the model group ([2]; mouse, in vivo): no significant changes | Body Weight (g) (d1) ([2]; mouse, in vivo, 25 mg/kg): 21.87 ± 0.89 g | Body Weight (g) (d30) ([2]; mouse, in vivo, 25 mg/kg): 22.95 ± 0.88 g | Body Weight (g) (d1) ([2]; mouse, in vivo, 50 mg/kg): 22.00 ± 0.94 g | Body Weight (g) (d30) ([2]; mouse, in vivo, 50 mg/kg): 22.82 ± 0.64 g | Body Weight (g) (d1) ([2]; mouse, in vivo, 100 mg/kg): 21.88 ± 0.54 g | Body Weight (g) (d30) ([2]; mouse, in vivo, 100 mg/kg): 23.00 ± 0.67 g | growth of H22 liver cancer in mice ([3]; 13, 26 and 52 mg/kg i.g. 7 days): significantly inhibit | Relative Tumor Proliferation Rate (T/C) ([3]; dose 12.5 mg/kg): 54.47 | Relative Tumor Volume (RTV) ([3]; dose 12.5 mg/kg): 5.41 ± 1.42 | Tumor Volume (mm3) (d 1) ([3]; dose 12.5 mg/kg): 120.26 ± 24.42 mm3 | Tumor Volume (mm3) (d30) ([3]; dose 12.5 mg/kg): 657.57 ± 231.56 mm3 | Inhibition Rate (%) ([3]; dose 13 mg/kg): 42.11% | Tumor ([3]; dose 13 mg/kg): 0.88 ± 0.38 g | Relative Tumor Proliferation Rate (T/C) ([3]; dose 25 mg/kg): 48.27 | Relative Tumor Volume (RTV) ([3]; dose 25 mg/kg): 4.79 ± 0.64 | Tumor Volume (mm3) (d 1) ([3]; dose 25 mg/kg): 118.32 ± 11.90 mm3 | Tumor Volume (mm3) (d30) ([3]; dose 25 mg/kg): 563.69 ± 463.08 mm3 | Inhibition Rate (%) ([3]; dose 26 mg/kg): 55.26% | Tumor ([3]; dose 26 mg/kg): 0.68 ± 0.24 g | Relative Tumor Proliferation Rate (T/C) ([3]; dose 50 mg/kg): 29.78 | Relative Tumor Volume (RTV) ([3]; dose 50 mg/kg): 2.96 ± 0.39 | Tumor Volume (mm3) (d 1) ([3]; dose 50 mg/kg): 120.68 ± 13.76 mm3 | Tumor Volume (mm3) (d30) ([3]; dose 50 mg/kg): 359.74 ± 480.81 mm3 | Inhibition Rate (%) ([3]; dose 52 mg/kg): 65.79% | Tumor ([3]; dose 52 mg/kg): 0.52 ± 0.68 g | Body Weight (g) (d1) ([3]; 13 mg/kg): 24.55 ± 1.00 g | Body Weight (g) (d 7) ([3]; 13 mg/kg): 26.23 ± 0.79 g | Body Weight (g) (d1) ([3]; 26 mg/kg): 23.83 ± 2.36 g | Body Weight (g) (d 7) ([3]; 26 mg/kg): 26.68 ± 1.85 g | Body Weight (g) (d1) ([3]; 52 mg/kg): 24.02 ± 2.83 g | Body Weight (g) (d 7) ([3]; 52 mg/kg): 27.87 ± 1.57 g
